Results: patent US12479847B2 (DANA-FARBER CANCER INSTITUTE, INC., priority 2019, dated 2025)
Read-outs that look alike come from different tables or passages of the source.

Columns and labels:
Experiment in all cases: KINOMEscan (ScanMAX) kinase profiling
Format in all cases: binding
panel of 468 kinases [1] = biological target: T1, panel of 468 kinases (Homo sapiens, UniProt Q15831); conditions: LKB1; 1 μM; read-out: % control
T1 construct: purchased KINOMEscan (ScanMAX) service
T1 sequence (Q15831 1-433): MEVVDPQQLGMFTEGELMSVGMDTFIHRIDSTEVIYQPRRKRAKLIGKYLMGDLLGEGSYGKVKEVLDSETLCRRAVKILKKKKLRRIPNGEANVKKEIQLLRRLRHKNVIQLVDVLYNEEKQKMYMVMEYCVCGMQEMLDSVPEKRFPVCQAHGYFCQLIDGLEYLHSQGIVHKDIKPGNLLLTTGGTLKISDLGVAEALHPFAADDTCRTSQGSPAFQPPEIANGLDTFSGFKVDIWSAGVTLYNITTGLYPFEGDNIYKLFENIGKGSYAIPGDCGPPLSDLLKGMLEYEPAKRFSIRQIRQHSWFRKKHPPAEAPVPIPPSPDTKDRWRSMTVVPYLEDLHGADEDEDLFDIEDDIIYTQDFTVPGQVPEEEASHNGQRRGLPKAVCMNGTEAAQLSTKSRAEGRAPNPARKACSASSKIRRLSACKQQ

panel of 468 kinases [2] = biological target: T2, panel of 468 kinases (Homo sapiens, UniProt Q9HC98); conditions: NEK6; 1 μM; read-out: % control
T2 construct: purchased KINOMEscan (ScanMAX) service
T2 sequence (Q9HC98 whole entry): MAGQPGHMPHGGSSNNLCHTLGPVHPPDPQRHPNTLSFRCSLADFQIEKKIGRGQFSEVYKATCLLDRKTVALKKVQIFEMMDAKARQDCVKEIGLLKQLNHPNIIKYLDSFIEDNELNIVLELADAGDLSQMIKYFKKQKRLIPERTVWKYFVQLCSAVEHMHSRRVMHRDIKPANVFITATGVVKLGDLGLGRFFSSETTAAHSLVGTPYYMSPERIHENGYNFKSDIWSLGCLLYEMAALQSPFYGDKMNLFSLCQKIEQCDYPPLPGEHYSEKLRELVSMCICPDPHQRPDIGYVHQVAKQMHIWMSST

panel of 468 kinases [3] = biological target: T3, panel of 468 kinases (Homo sapiens, UniProt O43683); conditions: BUB1; 1 μM; read-out: % control
T3 construct: purchased KINOMEscan (ScanMAX) service

panel of 468 kinases [4] = biological target: T4, panel of 468 kinases (Homo sapiens, UniProt P09619); conditions: PDGFRB; 1 μM; read-out: % control
T4 construct: purchased KINOMEscan (ScanMAX) service
T4 sequence (P09619 33-1106): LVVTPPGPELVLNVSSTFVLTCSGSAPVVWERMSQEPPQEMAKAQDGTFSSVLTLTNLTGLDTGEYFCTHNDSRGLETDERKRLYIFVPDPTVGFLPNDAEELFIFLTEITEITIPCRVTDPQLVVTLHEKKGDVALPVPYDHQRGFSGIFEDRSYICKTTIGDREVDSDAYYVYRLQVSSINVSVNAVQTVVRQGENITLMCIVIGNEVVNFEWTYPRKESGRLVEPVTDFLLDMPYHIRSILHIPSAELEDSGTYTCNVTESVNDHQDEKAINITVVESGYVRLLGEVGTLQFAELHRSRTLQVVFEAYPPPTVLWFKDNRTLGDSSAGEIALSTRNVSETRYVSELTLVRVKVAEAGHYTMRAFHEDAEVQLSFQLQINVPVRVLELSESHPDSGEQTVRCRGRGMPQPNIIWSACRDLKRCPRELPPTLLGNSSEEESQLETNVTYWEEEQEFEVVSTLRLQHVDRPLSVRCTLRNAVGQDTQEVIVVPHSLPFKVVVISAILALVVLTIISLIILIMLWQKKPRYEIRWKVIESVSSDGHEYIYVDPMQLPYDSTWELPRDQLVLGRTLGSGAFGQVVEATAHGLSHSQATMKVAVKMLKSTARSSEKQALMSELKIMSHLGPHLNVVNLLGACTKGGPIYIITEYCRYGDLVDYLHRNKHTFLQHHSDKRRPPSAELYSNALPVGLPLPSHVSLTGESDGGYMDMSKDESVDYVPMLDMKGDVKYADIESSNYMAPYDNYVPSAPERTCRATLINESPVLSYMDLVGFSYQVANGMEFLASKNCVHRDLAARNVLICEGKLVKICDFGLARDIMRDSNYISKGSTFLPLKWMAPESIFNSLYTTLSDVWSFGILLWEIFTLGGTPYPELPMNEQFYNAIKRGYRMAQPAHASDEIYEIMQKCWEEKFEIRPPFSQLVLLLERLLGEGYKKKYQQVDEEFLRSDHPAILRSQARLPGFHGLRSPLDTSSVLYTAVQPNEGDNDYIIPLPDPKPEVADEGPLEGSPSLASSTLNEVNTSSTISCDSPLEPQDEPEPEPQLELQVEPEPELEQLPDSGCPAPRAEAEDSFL

panel of 468 kinases [5] = biological target: T5, panel of 468 kinases (Homo sapiens, UniProt Q14680); conditions: MELK; 1 μM; read-out: % control
T5 construct: purchased KINOMEscan (ScanMAX) service

panel of 468 kinases [6] = biological target: T6, panel of 468 kinases (Homo sapiens, UniProt P07949); conditions: RET; 1 μM; read-out: % control
T6 construct: purchased KINOMEscan (ScanMAX) service
T6 sequence (P07949 29-1114): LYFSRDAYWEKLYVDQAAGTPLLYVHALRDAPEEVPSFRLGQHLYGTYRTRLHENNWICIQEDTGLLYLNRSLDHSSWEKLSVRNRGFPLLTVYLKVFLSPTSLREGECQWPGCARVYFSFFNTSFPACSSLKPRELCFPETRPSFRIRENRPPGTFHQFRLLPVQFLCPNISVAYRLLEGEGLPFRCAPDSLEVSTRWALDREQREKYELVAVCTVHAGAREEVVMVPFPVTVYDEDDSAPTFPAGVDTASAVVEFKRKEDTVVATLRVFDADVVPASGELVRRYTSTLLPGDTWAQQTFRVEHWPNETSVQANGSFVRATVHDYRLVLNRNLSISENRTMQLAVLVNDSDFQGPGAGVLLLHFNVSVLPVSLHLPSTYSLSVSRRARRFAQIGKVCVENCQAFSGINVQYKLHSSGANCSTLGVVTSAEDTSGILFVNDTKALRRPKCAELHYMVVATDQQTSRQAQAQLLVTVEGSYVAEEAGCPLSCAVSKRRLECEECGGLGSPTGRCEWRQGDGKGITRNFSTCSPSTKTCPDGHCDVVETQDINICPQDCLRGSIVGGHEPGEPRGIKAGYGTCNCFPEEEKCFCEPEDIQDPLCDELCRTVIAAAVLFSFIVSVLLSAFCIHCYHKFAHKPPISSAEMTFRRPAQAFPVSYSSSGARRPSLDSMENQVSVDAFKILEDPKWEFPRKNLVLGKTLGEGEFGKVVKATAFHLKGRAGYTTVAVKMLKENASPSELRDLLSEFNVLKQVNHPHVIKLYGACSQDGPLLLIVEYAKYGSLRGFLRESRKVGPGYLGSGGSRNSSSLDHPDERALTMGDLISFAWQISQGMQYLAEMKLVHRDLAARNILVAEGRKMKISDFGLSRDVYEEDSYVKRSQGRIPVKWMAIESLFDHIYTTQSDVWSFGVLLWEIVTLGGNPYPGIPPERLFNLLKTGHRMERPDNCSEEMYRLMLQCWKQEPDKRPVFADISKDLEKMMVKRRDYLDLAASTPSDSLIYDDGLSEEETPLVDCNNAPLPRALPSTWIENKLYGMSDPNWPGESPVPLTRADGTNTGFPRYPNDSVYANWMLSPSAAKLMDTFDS

panel of 468 kinases [7] = biological target: T7, panel of 468 kinases (Homo sapiens, UniProt P43403); conditions: ZAP70; 1 μM; read-out: % control
T7 construct: purchased KINOMEscan (ScanMAX) service
T7 sequence (P43403 1-619): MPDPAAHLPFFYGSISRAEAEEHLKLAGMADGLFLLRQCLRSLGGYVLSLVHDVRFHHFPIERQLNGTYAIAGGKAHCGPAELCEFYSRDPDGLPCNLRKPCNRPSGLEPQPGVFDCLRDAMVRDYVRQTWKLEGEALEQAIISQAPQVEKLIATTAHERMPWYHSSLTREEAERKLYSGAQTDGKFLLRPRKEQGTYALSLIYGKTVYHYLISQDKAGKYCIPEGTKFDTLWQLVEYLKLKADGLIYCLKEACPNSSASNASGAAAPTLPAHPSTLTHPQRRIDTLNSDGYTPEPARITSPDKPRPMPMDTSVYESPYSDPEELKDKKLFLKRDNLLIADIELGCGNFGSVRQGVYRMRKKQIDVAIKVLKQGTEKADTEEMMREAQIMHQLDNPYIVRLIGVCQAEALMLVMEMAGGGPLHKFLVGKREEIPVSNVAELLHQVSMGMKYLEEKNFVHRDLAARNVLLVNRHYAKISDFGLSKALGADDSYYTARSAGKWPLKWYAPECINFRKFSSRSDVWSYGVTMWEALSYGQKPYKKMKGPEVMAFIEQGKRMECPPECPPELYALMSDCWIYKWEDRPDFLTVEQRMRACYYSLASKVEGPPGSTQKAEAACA

panel of 468 kinases [8] = biological target: T8, panel of 468 kinases (Homo sapiens, UniProt P08581, M1250T); conditions: MET(M1250T); 1 μM; read-out: % control
T8 construct: purchased KINOMEscan (ScanMAX) service
T8 sequence (P08581 25-1390 M1250T): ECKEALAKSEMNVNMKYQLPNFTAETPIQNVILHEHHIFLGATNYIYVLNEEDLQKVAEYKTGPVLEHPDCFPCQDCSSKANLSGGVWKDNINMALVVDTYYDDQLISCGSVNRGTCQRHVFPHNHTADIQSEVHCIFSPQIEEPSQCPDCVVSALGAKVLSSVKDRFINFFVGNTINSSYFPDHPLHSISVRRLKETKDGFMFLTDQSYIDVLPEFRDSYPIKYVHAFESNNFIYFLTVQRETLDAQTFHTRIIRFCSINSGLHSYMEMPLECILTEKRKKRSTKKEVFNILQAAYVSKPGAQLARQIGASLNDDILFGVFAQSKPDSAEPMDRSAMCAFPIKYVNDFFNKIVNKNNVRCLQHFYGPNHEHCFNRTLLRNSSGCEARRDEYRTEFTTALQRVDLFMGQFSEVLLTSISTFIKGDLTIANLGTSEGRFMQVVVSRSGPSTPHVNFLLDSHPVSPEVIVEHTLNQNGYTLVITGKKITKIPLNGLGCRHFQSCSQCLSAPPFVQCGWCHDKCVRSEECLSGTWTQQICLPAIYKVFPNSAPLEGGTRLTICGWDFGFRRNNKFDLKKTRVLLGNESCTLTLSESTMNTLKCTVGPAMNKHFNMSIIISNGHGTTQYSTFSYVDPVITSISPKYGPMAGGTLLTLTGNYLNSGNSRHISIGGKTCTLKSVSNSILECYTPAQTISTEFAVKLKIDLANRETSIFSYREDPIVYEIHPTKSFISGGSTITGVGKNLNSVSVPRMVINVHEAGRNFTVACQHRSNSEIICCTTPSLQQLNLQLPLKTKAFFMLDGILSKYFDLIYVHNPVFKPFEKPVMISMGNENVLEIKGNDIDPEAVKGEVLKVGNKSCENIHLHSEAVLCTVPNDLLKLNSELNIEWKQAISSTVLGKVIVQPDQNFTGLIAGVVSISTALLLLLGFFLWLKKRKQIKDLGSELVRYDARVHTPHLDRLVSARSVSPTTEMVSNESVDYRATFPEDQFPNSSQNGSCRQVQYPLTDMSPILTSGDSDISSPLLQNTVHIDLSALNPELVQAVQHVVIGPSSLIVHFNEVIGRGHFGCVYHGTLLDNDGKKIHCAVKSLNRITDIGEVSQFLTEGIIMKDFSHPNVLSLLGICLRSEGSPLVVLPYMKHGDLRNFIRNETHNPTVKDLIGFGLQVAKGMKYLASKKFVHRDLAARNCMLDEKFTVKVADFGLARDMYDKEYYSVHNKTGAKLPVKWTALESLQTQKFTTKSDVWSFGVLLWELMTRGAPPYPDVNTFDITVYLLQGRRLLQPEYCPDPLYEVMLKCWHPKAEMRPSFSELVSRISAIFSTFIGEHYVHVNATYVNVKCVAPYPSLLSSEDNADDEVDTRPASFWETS

panel of 468 kinases [9] = biological target: T9, panel of 468 kinases (Homo sapiens, UniProt Q16513); conditions: PKN2; 1 μM; read-out: % control
T9 construct: purchased KINOMEscan (ScanMAX) service
T9 sequence (Q16513 whole entry): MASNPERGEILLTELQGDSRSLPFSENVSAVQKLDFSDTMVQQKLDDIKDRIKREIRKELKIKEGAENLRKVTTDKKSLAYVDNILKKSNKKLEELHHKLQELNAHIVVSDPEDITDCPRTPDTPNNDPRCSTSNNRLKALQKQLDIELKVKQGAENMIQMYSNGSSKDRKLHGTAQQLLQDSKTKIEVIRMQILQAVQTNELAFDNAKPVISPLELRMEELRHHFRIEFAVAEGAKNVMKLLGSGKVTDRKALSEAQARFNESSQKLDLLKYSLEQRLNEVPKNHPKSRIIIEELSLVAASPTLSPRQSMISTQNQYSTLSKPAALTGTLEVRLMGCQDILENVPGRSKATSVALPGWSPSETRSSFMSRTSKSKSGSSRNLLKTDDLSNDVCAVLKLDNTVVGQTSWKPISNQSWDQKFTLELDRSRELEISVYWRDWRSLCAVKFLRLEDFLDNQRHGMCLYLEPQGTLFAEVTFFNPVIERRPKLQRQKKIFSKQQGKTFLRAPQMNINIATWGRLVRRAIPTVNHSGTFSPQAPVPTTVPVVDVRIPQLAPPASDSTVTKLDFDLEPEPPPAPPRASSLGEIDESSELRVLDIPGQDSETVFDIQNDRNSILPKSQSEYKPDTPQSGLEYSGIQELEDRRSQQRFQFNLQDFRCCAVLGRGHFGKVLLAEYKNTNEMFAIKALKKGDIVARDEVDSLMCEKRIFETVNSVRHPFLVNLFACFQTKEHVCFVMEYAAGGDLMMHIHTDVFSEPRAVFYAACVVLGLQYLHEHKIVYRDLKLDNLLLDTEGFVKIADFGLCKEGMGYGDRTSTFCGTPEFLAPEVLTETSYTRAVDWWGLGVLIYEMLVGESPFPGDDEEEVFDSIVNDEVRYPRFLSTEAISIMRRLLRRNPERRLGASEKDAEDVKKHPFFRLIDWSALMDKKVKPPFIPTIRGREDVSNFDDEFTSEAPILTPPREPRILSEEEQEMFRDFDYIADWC

panel of 468 kinases [10] = biological target: T10, panel of 468 kinases (Homo sapiens, UniProt P00519, F317L); conditions: 1 μM, read-out: % control
T10 construct: purchased KINOMEscan (ScanMAX) service

panel of 468 kinases [11] = biological target: T11, panel of 468 kinases (Homo sapiens, UniProt P46734); conditions: MEK3; 1 μM; read-out: % control
T11 construct: purchased KINOMEscan (ScanMAX) service
T11 sequence (P46734 1-347): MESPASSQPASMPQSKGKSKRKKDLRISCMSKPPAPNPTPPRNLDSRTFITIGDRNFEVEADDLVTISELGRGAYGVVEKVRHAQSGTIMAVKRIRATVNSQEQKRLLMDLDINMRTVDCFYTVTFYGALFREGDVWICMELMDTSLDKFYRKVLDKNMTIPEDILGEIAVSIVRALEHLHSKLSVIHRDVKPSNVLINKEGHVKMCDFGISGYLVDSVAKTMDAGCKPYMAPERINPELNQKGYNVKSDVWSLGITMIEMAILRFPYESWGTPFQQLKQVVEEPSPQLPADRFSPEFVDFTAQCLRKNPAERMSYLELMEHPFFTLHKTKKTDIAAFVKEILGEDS

| Structure (SMILES) | remaining binding at 1 µM (panel of 468 kinases [1]) [%] | remaining binding at 1 µM (panel of 468 kinases [2]) [%] | remaining binding at 1 µM (panel of 468 kinases [3]) [%] | remaining binding at 1 µM (panel of 468 kinases [4]) [%] | remaining binding at 1 µM (panel of 468 kinases [5]) [%] | remaining binding at 1 µM (panel of 468 kinases [6]) [%] | remaining binding at 1 µM (panel of 468 kinases [7]) [%] | remaining binding at 1 µM (panel of 468 kinases [8]) [%] | remaining binding at 1 µM (panel of 468 kinases [9]) [%] | remaining binding at 1 µM (panel of 468 kinases [10]; ABL1(F317L)-nonphosphorylated) [%] | remaining binding at 1 µM (panel of 468 kinases [10]; ABL1(F317L)-phosphorylated) [%] | remaining binding at 1 µM (panel of 468 kinases [11]) [%] |
| --- | --- | --- | --- | --- | --- | --- | --- | --- | --- | --- | --- | --- |
| CNc1nc(Nc2ccc(S(=O)(=O)N3CCC(N4CCOCC4)CC3)cc2OC)nc2[nH]cc(Cl)c12 [Compound 12, 5-chloro-N2-(2-methoxy-4-((4-morpholinopiperidin-1-yl)sulfonyl)phenyl)-N4-methyl-7H-pyrrolo[2,3-d]pyrimidine-2,4-diamine] | 100 | 100 | 60 | 89 | 100 | 100 | 65 | 100 | 99 | 100 | 70 | 26 |
| CNc1nc(Nc2ccc(C(=O)N3CCC(N4CCOCC4)CC3)c3c2OCO3)nc2[nH]cc(Cl)c12 [Compound 75, (7-((5-chloro-4-(methylamino)-7H-pyrrolo[2,3-d]pyrimidin-2-yl)amino)benzo[d][1,3]dioxol-4-yl)(4-morpholinopiperidin-1-yl)methanone] | 100 | 100 | 49 | 56 | 30 | 100 | 22 | 100 | 91 | 100 | 47 | 2.4 |
| CNc1nc(Nc2ccc(P3(=O)CCN(C4CCOCC4)CC3)cc2OC)nc2[nH]cc(Cl)c12 [Compound 77, 4-(4-((5-chloro-4-(methylamino)-7H-pyrrolo[2,3-d]pyrimidin-2-yl)amino)-3-methoxyphenyl)-1-(tetrahydro-2H-pyran-4-yl)-1,4-azaphosphinane 4-oxide] | 100 | 100 | 61 | 100 | 85 | 100 | 37 | 100 | 100 | 100 | 54 | 9.4 |
